Earlier results as cited in patent US20050256097A1, “Pharmaceutical solution formulations containing 17-AAG” (Kosan Biosciences, Inc., priority 2004, published 2005).

SMILES | water solubility (in words) | water solubility (neutral pH)
C=CCNC1=C2C[C@@H](C)C[C@H](OC)[C@H](O)[C@@H](C)/C=C(\C)[C@H](OC(N)=O)[C@@H](OC)/C=C\C=C(/C)C(=O)NC(=CC1=O)C2=O [Sample 17-AAG, 17-allylamino-17-demethoxygeldanamycin] | very poor water solubility | about 0.1 mg/mL
COC1/C=C\C=C(/C)C(=O)NC2=CC(=O)C(NCCN(C)C)=C(C[C@@H](C)C[C@H](OC)[C@H](O)[C@@H](C)/C=C(\C)[C@@H]1OC(N)=O)C2=O (stereo partly shown) [Sample 17-DMAG, 17-(2-dimethylaminoethyl)amino-17-demethoxygeldanamycin] | more soluble | –
COC1=C2C[C@@H](C)C[C@H](OC)[C@H](O)[C@@H](C)/C=C(\C)[C@H](OC(N)=O)[C@@H](OC)/C=C\C=C(/C)C(=O)NC(=CC1=O)C2=O [geldanamycin, Geldanamycin] | very poor water solubility | –
